ChEMBL document CHEMBL1201862, “PubChem BioAssay data set” (2004)
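Five compound concentrations were applied to cells in 96-well plates for 48 hours; endpoints were derived by simple linear interpolation of the resulting dose-response curve. GI50: concentration for 50% inhibition of growth.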 Activity calls are given as the source filed them. No stated cut-off is given here; in the data, active = GI50 up to about 1.1 µM and inactive = higher.

Legend:
Assay in all cases: growth of human tumour cells (NCI), 48 h
SF-268 = test system: SF-268
M14 = test system: M14
SF-295 = test system: SF-295
SK-MEL-5 = test system: SK-MEL-5
NCI-H460 = test system: NCI-H460
A549 = test system: A549
NCI-H226 = test system: NCI-H226
SNB-75 = test system: SNB-75
U-251 = test system: U-251
SR = test system: SR
OVCAR-8 = test system: OVCAR-8
TK-10 = test system: TK-10
MCF7 = test system: MCF7
SK-OV-3 = test system: SK-OV-3
UO-31 = test system: UO-31
SNB-19 = test system: SNB-19
IGROV-1 = test system: IGROV-1
OVCAR-4 = test system: OVCAR-4
SK-MEL-28 = test system: SK-MEL-28
RPMI-8226 = test system: RPMI-8226

Measured: GI50

O=[N+]([O-])c1ccc2nc(O)c(/C=C(\O)c3ccccc3)nc2c1
inactive: SF-268 13.9 µM | M14 > 100 µM | SF-295 18.8 µM | SK-MEL-5 98.2 µM | NCI-H460 3.83 µM | A549 7.64 µM | NCI-H226 17.6 µM | SNB-75 16 µM | U-251 5.42 µM | SR 17.9 µM | OVCAR-8 11.5 µM | TK-10 4.13 µM | MCF7 13.4 µM | SK-OV-3 12.3 µM | UO-31 48.9 µM | SNB-19 8.09 µM | IGROV-1 20.6 µM | OVCAR-4 2.86 µM

C=C(C)C(=O)N1c2ccc(OC)cc2CC1C(=O)OCC (configuration not stated)
inactive: SF-268 > 100 µM | M14 > 100 µM | SF-295 > 100 µM | SK-MEL-5 > 100 µM | NCI-H460 > 100 µM | A549 > 100 µM | SK-MEL-28 > 100 µM | NCI-H226 > 100 µM | SNB-75 45.2 µM | U-251 > 100 µM | SR > 100 µM | OVCAR-8 > 100 µM | TK-10 > 100 µM | MCF7 > 100 µM | SK-OV-3 > 100 µM | UO-31 > 100 µM | SNB-19 > 100 µM | IGROV-1 > 100 µM | OVCAR-4 > 100 µM

COc1ccc(N2C(=O)CS(=O)(=O)C2c2cccc(Oc3ccccc3)c2)cc1 (configuration not stated)
inactive: SF-268 4.98 µM | M14 3.7 µM | SF-295 3.94 µM | SK-MEL-5 4.57 µM | NCI-H460 2.61 µM | A549 6.58 µM | SK-MEL-28 16.2 µM | NCI-H226 4.79 µM | SNB-75 4.28 µM | U-251 4.66 µM | SR 1.92 µM | OVCAR-8 4.08 µM | TK-10 2.65 µM | MCF7 1.87 µM | SK-OV-3 4.38 µM | UO-31 7.18 µM | SNB-19 5.53 µM | OVCAR-4 5.79 µM

C=CC(c1ccccc1)C1(O)c2cccc(O)c2C(=O)c2c(O)cccc21 (configuration not stated)
inactive: SF-268 17.3 µM | M14 18.4 µM | SF-295 14.9 µM | SK-MEL-5 17.3 µM | NCI-H460 17.3 µM | A549 14.7 µM | SK-MEL-28 18.8 µM | RPMI-8226 18.5 µM | NCI-H226 19.4 µM | SNB-75 20.5 µM | U-251 11.7 µM | SR 5.89 µM | OVCAR-8 19.7 µM | TK-10 19.2 µM | MCF7 17.1 µM | UO-31 19.8 µM | IGROV-1 14.9 µM | OVCAR-4 13.7 µM

O=c1[nH]nc(Nc2ccccc2)c2nnn(Cc3ccccc3)c12
inactive: SF-268 > 100 µM | M14 > 100 µM | SF-295 86.9 µM | SK-MEL-5 > 100 µM | NCI-H460 85.3 µM | A549 > 100 µM | SK-MEL-28 > 100 µM | NCI-H226 20.3 µM | SNB-75 18.7 µM | U-251 30.7 µM | SR > 100 µM | OVCAR-8 19.2 µM | TK-10 > 100 µM | MCF7 > 100 µM | UO-31 > 100 µM | SNB-19 74 µM | IGROV-1 > 100 µM | OVCAR-4 8.32 µM

N#CCCN(CCCN(C(=O)Nc1ccc(NC(=O)N(CCCN(CCC#N)C(N)=O)c2ccccc2)cc1)c1ccccc1)C(N)=O
inactive: SF-268 > 100 µM | M14 > 100 µM | SF-295 > 100 µM | SK-MEL-5 > 100 µM | NCI-H460 > 100 µM | A549 > 100 µM | SK-MEL-28 > 100 µM | RPMI-8226 > 100 µM | NCI-H226 > 100 µM | SNB-75 67.5 µM | U-251 > 100 µM | SR > 100 µM | OVCAR-8 > 100 µM | TK-10 > 100 µM | MCF7 4.72 µM | SK-OV-3 > 100 µM | UO-31 > 100 µM | SNB-19 > 100 µM | OVCAR-4 > 100 µM

O=C(O)C1C(C(=O)O)C(C(=O)O)C1C(=O)O (configuration not stated)
inactive: SF-268 > 100 µM | M14 > 100 µM | SF-295 > 100 µM | SK-MEL-5 > 100 µM | NCI-H460 > 100 µM | A549 > 100 µM | SK-MEL-28 > 100 µM | RPMI-8226 > 100 µM | NCI-H226 > 100 µM | SNB-75 > 100 µM | U-251 > 100 µM | SR 28.9 µM | OVCAR-8 > 100 µM | TK-10 > 100 µM | MCF7 > 100 µM | SK-OV-3 > 100 µM | UO-31 > 100 µM | SNB-19 > 100 µM | IGROV-1 > 100 µM | OVCAR-4 > 100 µM

CN(C)CCNC(=O)Cn1ccc(=O)c2ccc([N+](=O)[O-])cc21
inactive: SF-268 > 100 µM | M14 > 100 µM | SF-295 > 100 µM | SK-MEL-5 > 100 µM | NCI-H460 > 100 µM | A549 > 100 µM | SK-MEL-28 > 100 µM | RPMI-8226 > 100 µM | NCI-H226 > 100 µM | U-251 > 100 µM | SR > 100 µM | TK-10 > 100 µM | MCF7 > 100 µM | SK-OV-3 > 100 µM | UO-31 > 100 µM | SNB-19 > 100 µM | IGROV-1 > 100 µM | OVCAR-4 17.5 µM

O[C@@H]1C[C@H](Cl)c2c(Cl)sc(Cl)c21
inactive: SF-268 > 100 µM | M14 > 100 µM | SF-295 > 100 µM | SK-MEL-5 > 100 µM | NCI-H460 > 100 µM | A549 > 100 µM | SK-MEL-28 > 100 µM | RPMI-8226 > 100 µM | SNB-75 > 100 µM | U-251 > 100 µM | SR > 100 µM | OVCAR-8 > 100 µM | TK-10 > 100 µM | MCF7 13 µM | SK-OV-3 > 100 µM | UO-31 > 100 µM | SNB-19 > 100 µM | IGROV-1 > 100 µM | OVCAR-4 > 100 µM

Cc1cccc2c1C(=O)[C@@](C)([C@]1(C)Nc3cccc(C)c3C1=O)N2
inactive: SF-268 > 100 µM | M14 > 100 µM | SF-295 > 100 µM | SK-MEL-5 96.6 µM | NCI-H460 > 100 µM | A549 > 100 µM | SK-MEL-28 > 100 µM | RPMI-8226 11 µM | NCI-H226 > 100 µM | SNB-75 30.4 µM | U-251 > 100 µM | SR > 100 µM | OVCAR-8 > 100 µM | MCF7 > 100 µM | SK-OV-3 > 100 µM | UO-31 > 100 µM | SNB-19 > 100 µM | IGROV-1 > 100 µM | OVCAR-4 > 100 µM

O=C1/C(=C/c2ccc(Br)s2)NC(=S)N1CN1CCOCC1
inactive: SF-268 87.7 µM | SF-295 95.5 µM | SK-MEL-5 50 µM | NCI-H460 49.8 µM | SK-MEL-28 40.4 µM | RPMI-8226 16.7 µM | NCI-H226 34.5 µM | SNB-75 85.5 µM | U-251 43 µM | SR 21.5 µM | OVCAR-8 61.5 µM | TK-10 50.6 µM | MCF7 25.1 µM | UO-31 37.5 µM | SNB-19 > 100 µM | IGROV-1 57.4 µM | OVCAR-4 61.9 µM

Cc1ccc(Nc2nc3[nH]ccc3c(=O)[nH]2)cc1
inactive: SF-268 65.3 µM | M14 > 100 µM | SF-295 72.9 µM | SK-MEL-5 > 100 µM | NCI-H460 > 100 µM | A549 66.1 µM | RPMI-8226 > 100 µM | NCI-H226 > 100 µM | SNB-75 2.24 µM | U-251 > 100 µM | SR > 100 µM | OVCAR-8 > 100 µM | TK-10 95.7 µM | MCF7 > 100 µM | SK-OV-3 > 100 µM | UO-31 57.3 µM | SNB-19 96.2 µM | IGROV-1 > 100 µM | OVCAR-4 > 100 µM

OC[C@H]1NC[C@@H](O)[C@@H](O)[C@H]1O
inactive: M14 > 100 µM | SF-295 > 100 µM | SK-MEL-5 > 100 µM | NCI-H460 > 100 µM | SK-MEL-28 > 10 µM | RPMI-8226 > 100 µM | NCI-H226 > 100 µM | SNB-75 9.29 µM | U-251 > 100 µM | SR > 100 µM | OVCAR-8 > 100 µM | TK-10 > 100 µM | MCF7 > 100 µM | SK-OV-3 > 100 µM | UO-31 > 100 µM | SNB-19 > 100 µM | IGROV-1 > 100 µM | OVCAR-4 > 100 µM

OCCCCCNc1nc(O)c2[nH]cnc2n1
inactive: SF-268 > 100 µM | M14 > 100 µM | SF-295 > 10 µM | SK-MEL-5 > 100 µM | NCI-H460 > 100 µM | A549 > 10 µM | RPMI-8226 > 100 µM | NCI-H226 > 100 µM | SNB-75 > 100 µM | U-251 > 100 µM | SR > 100 µM | OVCAR-8 > 100 µM | TK-10 > 100 µM | MCF7 > 10 µM | SK-OV-3 > 10 µM | UO-31 > 100 µM | SNB-19 > 100 µM | IGROV-1 > 100 µM | OVCAR-4 > 100 µM

OC(c1ccc(Cl)cc1)(c1ccc(Cl)cc1)c1cncnc1
inactive: M14 16.7 µM | SF-295 19.1 µM | SK-MEL-5 13.6 µM | NCI-H460 18.2 µM | SK-MEL-28 18.7 µM | RPMI-8226 27.2 µM | NCI-H226 20.7 µM | SNB-75 21.2 µM | U-251 19.3 µM | SR 31.7 µM | OVCAR-8 21.4 µM | TK-10 21.8 µM | MCF7 25.9 µM | SK-OV-3 > 10 µM | UO-31 16 µM | SNB-19 22.5 µM | IGROV-1 > 10 µM | OVCAR-4 14.7 µM
